26 substances from the OligoGym collection can be followed below.

HELM strings list units from the 5' end as sugar, base in round brackets, then linkage (d deoxyribose, r ribose, m 2'-O-methyl, p phosphodiester). Strings are as the collection lists them; they lack the last nucleoside at the 3' end of the tested compound. [moe] = 2'-O-(2-methoxyethyl) (MOE); [sp] = phosphorothioate linkage; [m5C] = 5-methylcytosine

The target in this series is ATXN2. The series is described as follows: mouse, dose not given. To be noted: ASO.

“RNA1{[moe](T)[sp].[moe](G)p.[moe](T)p.[moe](T)p.[moe](A)p.d([m5C])[sp].d(T)[sp].d(G)[sp].d(T)[sp].d(T)[sp].d(T)[sp].d([m5C])[sp].d(G)[sp].d(A)[sp].d([m5C])[sp].[moe]([m5C])p.[moe](T)p.[moe]([m5C])[sp].[moe](T)}$$$$ (last 3' nucleoside missing)” yielded a 3 h FOB score of 6.25 score 0-7.
The same measure for “RNA1{[moe](G)[sp].[moe](T)p.[moe](G)p.[moe](G)p.[moe](T)p.d(G)[sp].d(G)[sp].d(T)[sp].d(G)[sp].d(T)[sp].d(G)[sp].d([m5C])[sp].d(G)[sp].d([m5C])[sp].d(A)[sp].[moe](T)p.[moe](G)p.[moe](T)[sp].[moe](A)}$$$$ (last 3' nucleoside missing)”: 7 score 0-7.
The substance “RNA1{[moe](G)[sp].[moe](A)p.[moe](G)p.[moe](T)p.[moe](T)p.d([m5C])[sp].d(A)[sp].d([m5C])[sp].d([m5C])[sp].d(T)[sp].d(G)[sp].d([m5C])[sp].d(A)[sp].d(T)[sp].d([m5C])[sp].[moe]([m5C])p.[moe]([m5C])p.[moe](A)[sp].[moe](G)}$$$$ (last 3' nucleoside missing)” displayed a 3 h FOB score of 6 score 0-7.
Under “RNA1{[moe](A)[sp].[moe]([m5C])p.[moe](T)p.[moe](T)p.[moe]([m5C])[sp].d(T)[sp].d([m5C])[sp].d(T)[sp].d(A)[sp].d(T)[sp].d(T)[sp].d(T)[sp].d([m5C])[sp].[moe](T)p.[moe](T)p.[moe](T)[sp].[moe](G)}$$$$ (last 3' nucleoside missing)” stands 2 score 0-7; under “RNA1{[moe](T)[sp].[moe](T)p.[moe](T)p.[moe]([m5C])p.[moe](T)p.d([m5C])[sp].d(A)[sp].d(T)[sp].d(G)[sp].d(T)[sp].d(G)[sp].d([m5C])[sp].d(G)[sp].d(G)[sp].d([m5C])[sp].[moe](A)p.[moe](T)p.[moe]([m5C])[sp].[moe](A)}$$$$ (last 3' nucleoside missing)”, 6 score 0-7; under “RNA1{[moe](A)[sp].[moe](G)p.[moe](T)p.[moe](T)p.[moe]([m5C])p.d(A)[sp].d([m5C])[sp].d([m5C])[sp].d(T)[sp].d(G)[sp].d([m5C])[sp].d(A)[sp].d(T)[sp].d([m5C])[sp].d([m5C])[sp].[moe]([m5C])p.[moe](A)p.[moe](G)[sp].[moe](G)}$$$$ (last 3' nucleoside missing)”, 5.5 score 0-7.
Turning to “RNA1{[moe](A)[sp].[moe](A)p.[moe](G)p.[moe](T)p.[moe]([m5C])p.d(T)[sp].d(T)[sp].d(G)[sp].d(T)[sp].d(T)[sp].d([m5C])[sp].d(A)[sp].d(G)[sp].d(T)[sp].d(G)[sp].[moe](T)p.[moe]([m5C])p.[moe]([m5C])[sp].[moe](T)}$$$$ (last 3' nucleoside missing)”, the 3 h FOB score worked out at 4.5 score 0-7.
“RNA1{[moe](G)[sp].[moe]([m5C])p.[moe](A)p.[moe](T)p.[moe](G)p.d(A)[sp].d(T)[sp].d([m5C])[sp].d(T)[sp].d(T)[sp].d(G)[sp].d(T)[sp].d(G)[sp].d(T)[sp].d(A)[sp].[moe](T)p.[moe](A)p.[moe](T)[sp].[moe](A)}$$$$ (last 3' nucleoside missing)” gave a 3 h FOB score of 1 score 0-7.
Under “RNA1{[moe](T)[sp].[moe](T)p.[moe](G)p.[moe](T)p.[moe](A)p.d([m5C])[sp].d(T)[sp].d(T)[sp].d([m5C])[sp].d(A)[sp].d([m5C])[sp].d(A)[sp].d(T)[sp].d(T)[sp].d(T)[sp].[moe](G)p.[moe](G)p.[moe](A)[sp].[moe](G)}$$$$ (last 3' nucleoside missing)” stands 3.75 score 0-7; under “RNA1{[moe](A)[sp].[moe](G)p.[moe](T)p.[moe](A)p.[moe](T)p.d([m5C])[sp].d(T)[sp].d([m5C])[sp].d(A)[sp].d(G)[sp].d(T)[sp].d(T)[sp].d(T)[sp].d(T)[sp].d(T)[sp].[moe](T)p.[moe](T)p.[moe](T)[sp].[moe](T)}$$$$ (last 3' nucleoside missing)”, 2 score 0-7; under “RNA1{[moe](G)[sp].[moe]([m5C])p.[moe](T)p.[moe](T)p.[moe](A)p.[moe](G)p.d(A)[sp].d(G)[sp].d(T)[sp].d(T)[sp].d(T)[sp].d(T)[sp].d(T)[sp].d(G)[sp].d([m5C])[sp].d([m5C])[sp].[moe](T)p.[moe](T)[sp].[moe]([m5C])}$$$$ (last 3' nucleoside missing)”, 5 score 0-7.
In turn, “RNA1{[moe](T)[sp].[moe](A)p.[moe]([m5C])p.[moe](T)p.[moe]([m5C])p.d(T)[sp].d([m5C])[sp].d([m5C])[sp].d(A)[sp].d(T)[sp].d(T)[sp].d(A)[sp].d(T)[sp].d(T)[sp].d(T)[sp].[moe]([m5C])p.[moe](T)p.[moe](T)[sp].[moe]([m5C])}$$$$ (last 3' nucleoside missing)” gave a 3 h FOB score of 2.25 score 0-7.
“RNA1{[moe](G)[sp].[moe](T)p.[moe](T)p.[moe](T)p.[moe](T)p.d(G)[sp].d(T)[sp].d(T)[sp].d(T)[sp].d(A)[sp].d(A)[sp].d(T)[sp].d([m5C])[sp].d(A)[sp].d([m5C])[sp].[moe](A)p.[moe](G)p.[moe](T)[sp].[moe](T)}$$$$ (last 3' nucleoside missing)” had a 3 h FOB score of 2 score 0-7.
Under “RNA1{[moe](A)[sp].[moe](G)p.[moe](G)p.[moe](T)p.[moe](G)p.d(A)[sp].d(T)[sp].d(G)[sp].d(T)[sp].d(T)[sp].d(T)[sp].d([m5C])[sp].d(A)[sp].d(T)[sp].d(T)[sp].[moe](G)p.[moe](G)p.[moe](G)[sp].[moe](T)}$$$$ (last 3' nucleoside missing)” stands 4.5 score 0-7.
The same measure for “RNA1{[moe](A)[sp].[moe](T)p.[moe]([m5C])p.[moe](A)p.[moe](G)p.d(T)[sp].d(A)[sp].d(T)[sp].d(T)[sp].d(T)[sp].d(A)[sp].d([m5C])[sp].d(T)[sp].d(A)[sp].d([m5C])[sp].[moe](T)p.[moe](T)p.[moe]([m5C])[sp].[moe](T)}$$$$ (last 3' nucleoside missing)”: 2.75 score 0-7; for “RNA1{[moe](G)[sp].[moe](A)p.[moe](G)p.[moe](T)p.[moe](T)p.d(T)[sp].d(T)[sp].d(T)[sp].d(G)[sp].d([m5C])[sp].d([m5C])[sp].d(T)[sp].d(T)[sp].d([m5C])[sp].d([m5C])[sp].[moe](A)p.[moe](T)p.[moe](T)[sp].[moe](T)}$$$$ (last 3' nucleoside missing)”: 1 score 0-7; for “RNA1{[moe](A)[sp].[moe]([m5C])p.[moe](T)p.[moe](T)p.[moe]([m5C])p.d(T)[sp].d([m5C])[sp].d(T)[sp].d(A)[sp].d(T)[sp].d(T)[sp].d(T)[sp].d([m5C])[sp].d(T)[sp].d(T)[sp].[moe](T)p.[moe](G)p.[moe](T)[sp].[moe]([m5C])}$$$$ (last 3' nucleoside missing)”: 3 score 0-7.
Under “RNA1{[moe](T)[sp].[moe](A)p.[moe](A)p.[moe]([m5C])p.[moe](T)[sp].d(G)[sp].d(G)[sp].d(T)[sp].d(T)[sp].d(T)[sp].d(G)[sp].d([m5C])[sp].d([m5C])[sp].[moe]([m5C])p.[moe](T)p.[moe](T)[sp].[moe](G)}$$$$ (last 3' nucleoside missing)” stands 6 score 0-7; under “RNA1{[moe](T)[sp].[moe](A)p.[moe]([m5C])p.[moe](T)p.[moe](T)[sp].d([m5C])[sp].d(A)[sp].d([m5C])[sp].d(A)[sp].d(T)[sp].d(T)[sp].d(T)[sp].d(G)[sp].[moe](G)p.[moe](A)p.[moe](G)[sp].[moe]([m5C])}$$$$ (last 3' nucleoside missing)”, 3.25 score 0-7; under “RNA1{[moe](A)[sp].[moe](A)p.[moe](G)p.[moe](T)p.[moe](A)p.d(G)[sp].d(T)[sp].d(G)[sp].d(T)[sp].d(T)[sp].d(T)[sp].d(G)[sp].d(G)[sp].d(G)[sp].d(A)[sp].[moe](T)p.[moe](G)p.[moe]([m5C])[sp].[moe](T)}$$$$ (last 3' nucleoside missing)”, 6 score 0-7.
In turn, “RNA1{[moe]([m5C])[sp].[moe]([m5C])[sp].[moe]([m5C])[sp].[moe](A)[sp].[moe](T)[sp].d(A)[sp].d([m5C])[sp].d(G)[sp].d([m5C])[sp].d(G)[sp].d(G)[sp].d(T)[sp].d(G)[sp].d(A)[sp].d(A)[sp].[moe](T)[sp].[moe](T)[sp].[moe]([m5C])[sp].[moe](T)}$$$$ (last 3' nucleoside missing)” had a 3 h FOB score of 7 score 0-7.
As for “RNA1{[moe](T)[sp].[moe](A)p.[moe]([m5C])p.[moe](T)p.d(T)[sp].d(T)[sp].d(T)[sp].d([m5C])[sp].d(T)[sp].d([m5C])[sp].d(A)[sp].d(T)[sp].d(G)[sp].d(T)[sp].[moe](G)p.[moe]([m5C])p.[moe](G)p.[moe](G)[sp].[moe]([m5C])}$$$$ (last 3' nucleoside missing)”, the 3 h FOB score turned out to be 1.75 score 0-7.
“RNA1{[moe]([m5C])[sp].[moe](T)p.[moe](T)p.[moe](T)p.[moe](T)[sp].d([m5C])[sp].d(T)[sp].d([m5C])[sp].d(A)[sp].d(T)[sp].d(G)[sp].d(T)[sp].d(G)[sp].[moe]([m5C])p.[moe](G)p.[moe](G)[sp].[moe]([m5C])}$$$$ (last 3' nucleoside missing)” came in with a 3 h FOB score of 5.5 score 0-7.
Consider “RNA1{[moe](G)[sp].[moe]([m5C])p.[moe](T)p.[moe](G)p.[moe](G)p.d(T)[sp].d(T)[sp].d([m5C])[sp].d([m5C])[sp].d(T)[sp].d(T)[sp].d(A)[sp].d([m5C])[sp].d(A)[sp].d(A)[sp].[moe](T)p.[moe](T)p.[moe](A)[sp].[moe](T)}$$$$ (last 3' nucleoside missing)”, for which the 3 h FOB score was 0 score 0-7.
The substance “RNA1{[moe](G)[sp].[moe](T)p.[moe](A)p.[moe](T)p.[moe]([m5C])p.d(A)[sp].d(T)[sp].d(A)[sp].d(T)[sp].d(A)[sp].d(T)[sp].d(T)[sp].d(T)[sp].d([m5C])[sp].d(T)[sp].[moe]([m5C])p.[moe](A)p.[moe](G)[sp].[moe]([m5C])}$$$$ (last 3' nucleoside missing)” yielded a 3 h FOB score of 2.25 score 0-7.
Under “RNA1{[moe](T)[sp].[moe](T)p.[moe]([m5C])p.[moe](T)[sp].[moe]([m5C])[sp].d(T)[sp].d(A)[sp].d(T)[sp].d(T)[sp].d(T)[sp].d([m5C])[sp].d(T)[sp].d(T)[sp].d(T)[sp].d(G)[sp].[moe](T)p.[moe]([m5C])p.[moe]([m5C])[sp].[moe](A)}$$$$ (last 3' nucleoside missing)” stands 4 score 0-7.
